In PMC9906756 (2023):

Experiments:
Assay in all cases: luminescence titration
[1] = tested on: 22AG (DNA, G4) AGGGTTAGGGTTAGGGTTAGGG; conditions: 100 mM KCl, 10 mM potassium phosphate; pH 7; 10 μM Ru-PDC3; per G4 strand; site size 0.5
[2] = tested on: K-ras (DNA, G4) AGGGCGGTGTGGGATAGGGAA; conditions: 100 mM KCl, 10 mM potassium phosphate; pH 7; 10 μM Ru-PDC3; per G4 strand; site size 0.5
[3] = tested on: TBA (DNA, G4) GGTTGGTGTGGTTGG; conditions: 100 mM KCl, 10 mM potassium phosphate; pH 7; 10 μM Ru-PDC3; per G4 strand; site size 0.5
[4] = tested on: Pu24T (DNA, G4) TGAGGGTGGTGAGGGTGGGGAAGG; conditions: 100 mM KCl, 10 mM potassium phosphate; pH 7; 10 μM Ru-PDC3; per G4 strand; site size 0.5
[5] = tested on: INTER (DNA, G4) TAGGGTTA; conditions: 100 mM KCl, 10 mM potassium phosphate; pH 7; 10 μM Ru-PDC3; concentration as G4 strand equivalent; site size 0.5
[6] = tested on: ds17 (DNA, duplex) CCAGTTCGTAGTAACCC/GGGTTACTACGAACTGG; conditions: 100 mM KCl, 10 mM potassium phosphate, pH 7, 10 μM Ru-PDC3, per base pair, site size 1
[7] = tested on: ss17 (DNA, single strand) CCAGTTCGTAGTAACCC; conditions: 100 mM KCl, 10 mM potassium phosphate, pH 7, 10 μM Ru-PDC3, per base, site size 1
[8] = tested on: A13 (DNA, single strand) AAAAAAAAAAAAA; conditions: 100 mM KCl, 10 mM potassium phosphate, pH 7, 10 μM Ru-PDC3, per base, site size 0.5, Table S2 prints 2.3±1.2 × 10^6
[9] = tested on: T13 (DNA, single strand) TTTTTTTTTTTTT; conditions: 100 mM KCl, 10 mM potassium phosphate, pH 7, 10 μM Ru-PDC3, per base, site size 1, Table S2 prints error 0.6

For `C[n+]1cc(NC(=O)c2ccc3c(n2)c2nc(C(=O)Nc4cc5ccccc5[n+](C)c4)ccc2c2nc4c5cccnc5c5ncccc5c4nc32)cc2ccccc21.[Ru+2].c1cnc2c(c1)ccc1cccnc12.c1cnc2c(c1)ccc1cccnc12`, the Kb [1] was 2.2 ± 0.7 × 10^7 M^-1, the Kb [2] was 1.4 ± 0.1 × 10^7 M^-1 and the Kb [3] was 5.6 ± 1.7 × 10^6 M^-1. The Kb [4] was 2.6 ± 0.1 × 10^6 M^-1, the Kb [5] was 1.4 ± 0.2 × 10^7 M^-1 and the Kb [6] was 1.9 ± 0.3 × 10^6 M^-1. For the same compound, the Kb [7] was 1.3 ± 0.4 × 10^6 M^-1, the Kb [8] was 2.2 ± 1.3 × 10^6 M^-1 and the Kb [9] was 1.4 ± 0.5 × 10^6 M^-1.
